Data taken from ChEMBL document CHEMBL5154798, “Structure-based discovery of receptor tyrosine kinase AXL degraders with excellent anti-tumor activity by selectively degrading AXL and inducing methuosis” (Eur J Med Chem, 2022).
pIC50: −log10 of the molar value. Activity calls are given as the source filed them. The rule behind the calls is not given here.

Legend:
MDA-MB-231 [1] = test: Antiproliferative activity against human MDA-MB-231 cells highly expressing AXL after 72 hrs by MTT assay; details: MDA-MB-231, 72 h
4T1 = test: Antiproliferative activity against mouse 4T1 cells highly expressing AXL after 72 hrs by MTT assay; details: 4T1, 72 h
[2] = Cytotoxicity against human MCF-10A cells after 72 hrs by MTT assay; format: toxicity, cell-based
[3] = Cytotoxicity against human GES1 cells after 72 hrs by MTT assay; format: toxicity, cell-based
[4] = target: T1, Tyrosine-protein kinase receptor UFO (Homo sapiens, UniProt P30530); test: Inhibition of AXL (unknown origin) measured by FRET assay
T1 sequence (P30530 whole entry): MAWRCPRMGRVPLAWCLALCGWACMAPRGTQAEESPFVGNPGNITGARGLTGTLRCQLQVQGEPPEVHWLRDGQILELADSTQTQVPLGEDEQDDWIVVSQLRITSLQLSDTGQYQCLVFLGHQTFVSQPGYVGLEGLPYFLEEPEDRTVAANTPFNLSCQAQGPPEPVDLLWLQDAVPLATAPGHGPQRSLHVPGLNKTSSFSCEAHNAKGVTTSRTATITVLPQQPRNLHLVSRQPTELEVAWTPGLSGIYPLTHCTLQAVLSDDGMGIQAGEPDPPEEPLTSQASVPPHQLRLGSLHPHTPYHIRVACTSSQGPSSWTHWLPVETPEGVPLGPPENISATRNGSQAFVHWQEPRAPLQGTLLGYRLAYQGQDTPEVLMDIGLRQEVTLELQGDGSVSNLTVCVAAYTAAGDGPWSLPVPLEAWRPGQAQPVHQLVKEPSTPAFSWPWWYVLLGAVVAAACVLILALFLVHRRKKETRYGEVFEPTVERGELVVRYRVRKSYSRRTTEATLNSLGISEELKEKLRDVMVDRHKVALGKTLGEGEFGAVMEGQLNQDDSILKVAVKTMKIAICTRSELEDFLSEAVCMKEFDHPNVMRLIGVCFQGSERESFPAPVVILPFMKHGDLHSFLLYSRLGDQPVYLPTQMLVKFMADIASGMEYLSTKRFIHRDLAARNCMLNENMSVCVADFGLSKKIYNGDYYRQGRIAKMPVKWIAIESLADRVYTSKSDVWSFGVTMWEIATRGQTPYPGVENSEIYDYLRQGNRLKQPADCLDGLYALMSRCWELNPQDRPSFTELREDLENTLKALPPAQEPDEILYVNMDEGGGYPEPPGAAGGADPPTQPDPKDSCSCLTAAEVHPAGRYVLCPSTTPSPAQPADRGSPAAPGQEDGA

MDA-MB-231 [5] = test: Antitumor activity against human MDA-MB-231 cells xenografted in female BALB/c nude mouse assessed as tumor growth inhibition at 25 mg/kg, ip; format: functional, organism-based
[6] = Toxicity in female BALB/c nude mouse xenografted with human MDA-MB-231 cells assessed as change in body wieght at 25 mg/kg, ip; format: organism-based; details: in vivo
[7] = Systemic toxicity in female BALB/c nude mouse xenografted with human MDA-MB-231 cells assessed as necrosis of heart tissue at 25 mg/kg, ip; format: organism-based; details: in vivo
[8] = Systemic toxicity in female BALB/c nude mouse xenografted with human MDA-MB-231 cells assessed as necrosis of liver tissue at 25 mg/kg, ip; format: organism-based; details: in vivo
[9] = Systemic toxicity in female BALB/c nude mouse xenografted with human MDA-MB-231 cells assessed as necrosis of spleen tissue at 25 mg/kg, ip; format: organism-based; details: in vivo
[10] = Systemic toxicity in female BALB/c nude mouse xenografted with human MDA-MB-231 cells assessed as necrosis of lung tissue at 25 mg/kg, ip; format: organism-based; details: in vivo
[11] = Systemic toxicity in female BALB/c nude mouse xenografted with human MDA-MB-231 cells assessed as necrosis of kidney tissue at 25 mg/kg, ip; format: organism-based; details: in vivo
[12] = Systemic toxicity in female BALB/c nude mouse xenografted with human MDA-MB-231 cells assessed as inflammatory cell infiltration in heart at 25 mg/kg, ip; format: organism-based; details: in vivo
[13] = Systemic toxicity in female BALB/c nude mouse xenografted with human MDA-MB-231 cells assessed as inflammatory cell infiltration in liver at 25 mg/kg, ip; format: organism-based; details: in vivo
[14] = Systemic toxicity in female BALB/c nude mouse xenografted with human MDA-MB-231 cells assessed as inflammatory cell infiltration in spleen at 25 mg/kg, ip; format: organism-based; details: in vivo
[15] = Systemic toxicity in female BALB/c nude mouse xenografted with human MDA-MB-231 cells assessed as inflammatory cell infiltration in lung at 25 mg/kg, ip; format: organism-based; details: in vivo
[16] = Systemic toxicity in female BALB/c nude mouse xenografted with human MDA-MB-231 cells assessed as inflammatory cell infiltration in kidney at 25 mg/kg, ip; format: organism-based; details: in vivo

SMILES	pIC50 (MDA-MB-231 [1])	pIC50 (4T1)	IC50 at 72 h [2] [µM]	IC50 at 72 h [3] [µM]	other results
Nc1nc(Nc2ccc(CNC(=O)CCCNc3cccc4c3CN(C3CCC(=O)NC3=O)C4=O)cc2)nn1-c1cc2c(nn1)-c1ccccc1CCC2 (stereo not drawn)	4.38	4.46	> 60	> 60	–
Nc1nc(Nc2ccc(CNC(=O)CCCCCCNc3cccc4c3CN(C3CCC(=O)NC3=O)C4=O)cc2)nn1-c1ccc(-c2ccccc2)nn1 (stereo not drawn)	4.54	4.61	> 60	> 60	–
Nc1nc(Nc2ccc(CNC(=O)CCCNc3cccc4c3CN(C3CCC(=O)NC3=O)C4=O)cc2)nn1-c1ccc(-c2ccccc2)nn1 (stereo not drawn)	4.32	< 4.22	> 60	> 60	–
Nc1nc(Nc2ccc(CNC(=O)CCCCNc3cccc4c3CN(C3CCC(=O)NC3=O)C4=O)cc2)nn1-c1ccc(-c2ccccc2)nn1 (stereo not drawn)	4.45	4.27	> 60	> 60	–
Nc1nc(Nc2ccc(CNC(=O)CCCCCCCNc3cccc4c3CN(C3CCC(=O)NC3=O)C4=O)cc2)nn1-c1cc2c(nn1)-c1ccccc1CCC2 (stereo not drawn)	4.56	4.68	> 60	> 60	–
Nc1nc(NCCNC(=O)CCCCCCNc2cccc3c2CN(C2CCC(=O)NC2=O)C3=O)nn1-c1ccc(-c2ccccc2)nn1 (stereo not drawn)	< 4.22	< 4.22	> 60	> 60	pIC50 [4]: < 4.22
Nc1nc(NCCNC(=O)CCCCCCCNc2cccc3c2CN(C2CCC(=O)NC2=O)C3=O)nn1-c1cc2c(nn1)-c1ccccc1CCC2 (stereo not drawn)	< 4.22	4.57	> 60	> 60	–
Nc1nc(NCCNC(=O)CCCCCNc2cccc3c2CN(C2CCC(=O)NC2=O)C3=O)nn1-c1ccc(-c2ccccc2)nn1 (stereo not drawn)	4.50	4.56	> 60	> 60	–
Nc1nc(Nc2ccc3c(c2)CC[C@@H](N2CCCC2)CC3)nn1-c1cc2c(nn1)-c1ccccc1CCC2 [BEMCENTINIB]	5.55	6.03	> 60	> 60	TGI (MDA-MB-231 [5]): Active; Activity [6]: Non-Toxic; Activity [7]: Non-Toxic; Activity [8]: Non-Toxic; Activity [9]: Non-Toxic; Activity [10]: Non-Toxic; Activity [11]: Non-Toxic; Activity [12]: Non-Toxic; Activity [13]: Non-Toxic; Activity [14]: Non-Toxic; Activity [15]: Non-Toxic; Activity [16]: Non-Toxic
Nc1nc(NCCNC(=O)CCCNc2cccc3c2CN(C2CCC(=O)NC2=O)C3=O)nn1-c1cc2c(nn1)-c1ccccc1CCC2 (stereo not drawn)	< 4.22	–	> 60	> 60	pIC50 [4]: < 4.22
